Experimental data: patent US20220000964A1, “Compositions and Methods for Regulating Homeostasis of Chondrocytes, Extracellular Matrix, Articular Cartilage, and Phenotype of Arthritis” (Unigen, Inc., priority 2020, published 2022)

Columns and labels:
Assay type in all cases: in vivo, rat
CIA rats [1] = experiment: CIA rats, compression-induced pain (Randall-Salitto)
Method: Clinical findings such as arthritis severity index, paw thickness, ankle diameter (using Digital Absolute, Model #PK-0505CPX, Mitutoyo Corporation, Kawasaki, Japan), and pain sensitivity (using Randall Salitto, IITC Life Science Inc., Woodland Hills, Calif., USA) were monitored during the course of study. Urine was collected from overnight fasted rats using metabolic cages after three weeks of treatment post-model induction. At Necropsy, serum from the cardiac and synovial lavage (100 μL of saline was injected into the articular cavity and aspirated back to the syringe) for biomarkers and ankle joint for histopathology were collected from each animal.
Response to pressure as a measure of pain sensitivity was assessed using the Randall-Salitto probe attached to an electronic monitor on priming day, boost day, and days 12, 14, 16, 19, and 21. Both the left and right hind legs were monitored on those days and their average was used for data analysis. Changes from the vehicle-treated CIA rats have been reported as pain tolerance on those days.
Response to pressure as a measure of pain sensitivity was measured using the Randall-Salitto probe attached to an electronic monitor on priming day, boost day, and days 12, 14, 16, 18 and 20. Both the left and right hind legs were monitored on those days and their averages were used for data analysis. Changes from the vehicle-treated CIA rats have been reported as pain tolerance on those days. […] This reduction in pain sensitivity was statistically significant at all time points as of day-12 for both groups when compared to vehicle-treated CIA rats (Table 43).

IL-1β = experiment: CIA rats, serum IL-1β ELISA; settings: AMK CIA study; MTX 75 μg/kg, AMK 200 mg/kg oral
Method: The presence of catabolic cytokines IL-1β, TNF-α, or IL-6 was measured using Rat IL-1, TNF-α, and IL-6 Quantikine ELISA kit from R and D Systems (product #: RLB00 for IL-1β, RTA00 for TNF-α, and R6000B for IL-6) as follows: diluted serum was added to a microplate coated with polyclonal IL-1, TNF-α, or IL-6 antibody and allowed to bind for 2 h at room temperature. The microplate was washed thoroughly to remove unbound serum and then a polyclonal enzyme-conjugated IL-1β, TNF-α, or IL-6 antibody was added and allowed to bind for 2 h at room temperature. Washing was repeated, enzyme substrate was added, and the plate was developed for 30 min at room temperature. After the addition of stop solution, the absorbance was read at 450 nm, multiplied by dilution factor, and the concentration of IL-1β/TNF-α/IL-6 calculated based on the absorbance readings of an IL-1β/TNF-α/TL-6 standard curve.

TNF-α = experiment: CIA rats, serum TNF-α ELISA; settings: for TNF-α: serum
Method: (§1) The presence of catabolic cytokines IL-6/TNF-α was measured using the Rat IL-6/TNF-α Quantikine ELISA kit from RandD Systems as follows: undiluted serum was added to a microplate coated with polyclonal IL-6/TNF-α antibody and allowed to bind for 2 hours at room temperature. The microplate was washed thoroughly to remove unbound serum, and then a polyclonal enzyme-conjugated IL-6/TNF-α antibody was added and allowed to bind for 2 hours at room temperature. Washing was repeated, enzyme substrate was added, and the plate was developed for 30 minutes at room temperature. After the addition of stop solution, the absorbance was read at 450 nm and the concentration of IL-6/TNF-α calculated based on the absorbance readings of an IL-6/TNF-α standard curve.

IL-6 = experiment: CIA rats, serum IL-6 ELISA; settings: for IL-6: serum
Method: as §1

MMP-13 = experiment: CIA rats, serum MMP-13 ELISA; settings: for MMP-13: serum
Method: The presence of cartilage degradative enzyme MMP-13 was measured using the Rat Matrix Metallo-Proteinase 13 (MMP-13) ELISA kit from Mybiosource (product #: MBS702112 for MMP-13) as follows: serum was added to a microplate coated with MMP-13 antibody and allowed to bind for 2 h at 37° C. The samples were removed and then a biotin-conjugated MMP-13 antibody was added and allowed to bind for 1 h at 37° C. The microplate was thoroughly washed, and an avidin-conjugated Horse Radish Peroxidase was added and allowed to bind for 1 h at 37° C. Enzyme substrate was then added, and the plate was developed for 30 min at 37° C. After the addition of stop solution, the absorbance was read at 450 nm, multiplied by dilution factor, and the concentration of MMP-13 calculated based on the absorbance readings of an MMP-13 standard curve
The presence of cartilage degradative enzyme MMP-13 was measured using the Rat Matrix Metalloproteinase 13 (MMP-13) ELISA kit from Mybiosource (product #: MBS702112) as follows: undiluted serum was added to a microplate coated with MMP-13 antibody and allowed to bind for 2 hours at 37° C. The samples were removed, and then a biotin-conjugated MMP-13 antibody was added and allowed to bind for 1 hour at 37° C. The microplate was thoroughly washed, and an avidin-conjugated Horse Radish Peroxidase was added and allowed to bind for 1 hour at 37° C. Enzyme substrate was then added, and the plate was developed for 30 minutes at 37° C. After the addition of stop solution, the absorbance was read at 450 nm and the concentration of MMP-13 calculated based on the absorbance readings of an MMP-13 standard curve.

uCTX-II = experiment: CIA rats, urinary CTX-II ELISA normalized to creatinine
Method: The presence of the cartilage degradation biomarker uCTX-II was measured using the Rat CTX-II ELISA kit from Mybiosource (product #: MBS2880519) as follows: diluted urine was added to a microplate coated with CTX-II antibody and allowed to bind for 2 h at 37° C. […] The microplate was washed thoroughly to remove unbound urine and antibody before an enzyme-conjugated avidin antibody was added to bind to the biotin-conjugated antibody for specific detection. The avidin antibody was allowed to bind for 1 h at 37° C. Washing was repeated, enzyme substrate was added, and the plate was developed for 30 min at 37° C. After the addition of stop solution, the absorbance was read at 450 nm, multiplied by dilution factor, and the concentration of CTX-II calculated based on the absorbance readings of a CTX-II standard curve. CTX-II amount was normalized to the amount of Creatinine in the urine using the Creatinine Parameter Assay Kit from R and D Systems (product #: […] Absorbance was read at 492 nm and Creatinine amount in urine was calculated based on the absorbance readings of a Creatinine standard curve.

PIIANP = experiment: CIA rats, PIIANP ELISA (synovial fluid or serum)
Method: The presence of cartilage regeneration/rebuilding biomarker PIIANP was measured using the Rat Procollagen Type IIA N-Prop (PIIANP) ELISA kit from Mybiosource (product #: MBS9399069) as follows: synovial fluid was added to a microplate coated with PIIANP antibody as well as an HRP-conjugated PIIANP antibody and allowed to bind for one hour at 37° C. The microplate was thoroughly washed, and a Chromagen solution was added and allowed to bind for 15 minutes at 37° C. After the addition of stop solution, the absorbance was read at 450 nm and the concentration of PIIANP calculated based on the absorbance readings of a PIIANP standard curve.
The level of cartilage regeneration biomarker PIIANP was measured using the Rat Procollagen Type IIA N-Prop (PIIANP) ELISA kit from Mybiosource (product #: MBS9399069) as follows: undiluted serum was added to a microplate coated with PIIANP antibody as well as an HRP-conjugated PIIANP antibody and allowed to bind for one hour at 37° C. The microplate was thoroughly washed, and a Chromagen solution was added and allowed to bind for 15 minutes at 37° C. After the addition of stop solution, the absorbance was read at 450 nm and the concentration of PIIANP calculated based on the absorbance readings of a PIIANP standard curve.

[2] = tested on: type II collagen synthesis and degradation; experiment: CIA rats, Z score of type II collagen synthesis and degradation (PIIANP, uCTX-II)
Description: Previously, Garnero et al measured these markers [Type II collagen synthesis and degradation: N-propeptide of type IIA procollagen (PIIANP) and urine CTX-II, respectively] and correlated them to findings on radiographs and arthroscopy of OA patients. […] They explained their observation that these patients have an uncoupling effect between collagen synthesis and degradation, which is leaning more towards the progression of OA.
Adapting their method, we calculated the Z-factor for cartilage synthesis and degradation using data from PIIANP and uCTX-II, respectively. For an intervention to drive the OA catabolic progression towards anabolic or regenerative activities, the Z-score values have to come close to zero.

CIA rats [3] = experiment: CIA rats, ankle joint histopathology (modified Mankin)
Method: For histopathological examination, the ankle joints were kept in 10% formalin for 72 h. The fixed specimens were then decalcified with Calci-Clear Rapid for one and a half days and embedded in paraffin. Standardized 5 μm serial sections were obtained at the medial and lateral section in the sagittal plane of the joint and were stained with hematoxylin and eosin (HE) and Safranin O-fast green to enable evaluation of proteoglycan content. A modified Mankin system (Mankin et al., 1971) was used to score structural and cellular alterations of joint tissues resulting from disease progression and/or treatment efficacy. The histological analysis was conducted at Nationwide Histology and slides were examined by a certified pathologist.
At necropsy, the ankle joint was carefully dissected out, fixed in 10% buffered formalin and sent to Nationwide Histology (Veradale, Wash., USA) for further histopathology analysis. The fixed specimens were then decalcified with Calci-Clear Rapid for one and a half days and embedded in paraffin. Standardized 5 m serial sections were obtained from each rat and stained with hematoxylin and eosin (HE) and Safranin O-fast green to enable evaluation of proteoglycan content. A modified Mankin system (Mankin et al., 1981) was used to score structural and cellular alterations of articular components as indications of disease progression and/or treatment efficacy. The histological analysis was conducted by a certified Pathologist at Nationwide Histology.

[4] = AMK CIA study, MTX 75 μg/kg, AMK 200 mg/kg oral
[5] = AP CIA study, Methotrexate 0.5 mg/kg, AP 200 mg/kg oral
[6] = AP study, MTX (0.5 mg/mL), AP (200 mg/kg) oral 3 weeks
[7] = AMK study, MTX (75 μg/mL), AMK (200 mg/kg)
[8] = AP study, MTX (0.5 mg/mL), AP (200 mg/kg)
[9] = score 0-6, AMK study, MTX (75 μg/mL), AMK (200 mg/kg)
[10] = score, AP study, MTX (0.5 mg/mL), AP (200 mg/kg)

## CN(Cc1cnc2nc(N)nc(N)c2n1)c1ccc(C(=O)N[C@@H](CCC(=O)O)C(=O)O)cc1 [Methotrexate]
CIA rats [1]; AP CIA study, Methotrexate 0.5 mg/kg, day 20
  pain tolerance improvement vs vehicle-treated CIA: 69.4%
CIA rats [1]; AP CIA study, days 12-20
  range of reduction in pain sensitivity vs vehicle treated CIA rats: 8.39-69.4%
CIA rats [1]; Boost, MTX 0.5 mg/kg, AP 200 mg/kg
  Compression pain resistance vs CIA + vehicle (Mean ± SD): −1.50%
CIA rats [1]; Day 12, MTX 0.5 mg/kg, AP 200 mg/kg
  Compression pain resistance vs CIA + vehicle (Mean ± SD): 8.39%
CIA rats [1]; Day 14, MTX 0.5 mg/kg, AP 200 mg/kg
  Compression pain resistance vs CIA + vehicle (Mean ± SD): 27.30%
CIA rats [1]; Day 16, MTX 0.5 mg/kg, AP 200 mg/kg
  Compression pain resistance vs CIA + vehicle (Mean ± SD): 54.31%
CIA rats [1]; Day 18, MTX 0.5 mg/kg, AP 200 mg/kg
  Compression pain resistance vs CIA + vehicle (Mean ± SD): 64.13%
CIA rats [1]; Day 20, MTX 0.5 mg/kg, AP 200 mg/kg
  Compression pain resistance vs CIA + vehicle (Mean ± SD): 69.35%
CIA rats [1]; MTX 75 μg/kg, AMK 200 mg/kg oral, Boost
  Compression pain resistance vs CIA + vehicle (Mean ± SD): 0.27 ± 2.16%
CIA rats [1]; MTX 75 μg/kg, AMK 200 mg/kg oral, Day 12
  Compression pain resistance vs CIA + vehicle (Mean ± SD): 6.8%
CIA rats [1]; MTX 75 μg/kg, AMK 200 mg/kg oral, Day 12, listed as MTX
  Compression pain resistance vs CIA + vehicle (Mean ± SD): 6.75 ± 4.56 %
CIA rats [1]; MTX 75 μg/kg, AMK 200 mg/kg oral, Day 14
  Compression pain resistance vs CIA + vehicle (Mean ± SD): 13.5%
CIA rats [1]; MTX 75 μg/kg, AMK 200 mg/kg oral, Day 14, listed as MTX
  Compression pain resistance vs CIA + vehicle (Mean ± SD): 13.48 ± 15.98%
CIA rats [1]; MTX 75 μg/kg, AMK 200 mg/kg oral, Day 16
  Compression pain resistance vs CIA + vehicle (Mean ± SD): 28.2%
CIA rats [1]; MTX 75 μg/kg, AMK 200 mg/kg oral, Day 16, listed as MTX
  Compression pain resistance vs CIA + vehicle (Mean ± SD): 28.18 ± 12.53 %
CIA rats [1]; MTX 75 μg/kg, AMK 200 mg/kg oral, Day 19
  Compression pain resistance vs CIA + vehicle (Mean ± SD): 40.8%
CIA rats [1]; MTX 75 μg/kg, AMK 200 mg/kg oral, Day 19, listed as MTX
  Compression pain resistance vs CIA + vehicle (Mean ± SD): 40.77%
CIA rats [1]; MTX 75 μg/kg, AMK 200 mg/kg oral, Day 21
  Compression pain resistance vs CIA + vehicle (Mean ± SD): 43.9%
CIA rats [1]; MTX 75 μg/kg, AMK 200 mg/kg oral, Day 21, listed as MTX
  Compression pain resistance vs CIA + vehicle (Mean ± SD): 43.88 ± 5.97^¥ %
CIA rats [1]; MTX 75 μg/kg, AMK 200 mg/kg oral, Prime
  Compression pain resistance vs CIA + vehicle (Mean ± SD): −0.12 ± 1.39%
CIA rats [1]; Prime, MTX 0.5 mg/kg, AP 200 mg/kg
  Compression pain resistance vs CIA + vehicle (Mean ± SD): −1.20%
IL-1β
  serum IL-1β inhibition compared to diseased control: 71.5%
TNF-α; [4]
  serum TNF-α inhibition compared to diseased control: 86.2%
TNF-α; [5]
  serum TNF-α level vs vehicle-treated CIA: significantly reduced
TNF-α; AMK study, AMK (200 mg/kg)
  TNF-α: 0.37 ± 1.12 pg/mL
TNF-α; [6]
  TNF-α: 10.2 ± 0.37 pg/mL
IL-6; [4]
  serum IL-6 inhibition compared to diseased control: 78.6%
IL-6; [7]
  IL-6: 10.23 ± 7.37 pg/mL
IL-6; [6]
  IL-6: 3.33 ± 6.44 pg/mL
MMP-13; [4]
  serum MMP-13 inhibition compared to vehicle-treated CIA rats: 78.6%
MMP-13; [7]
  MMP-13: 9.67 ± 1.80 pg/mL
MMP-13; [6]
  MMP-13: 86.57 ± 45.31 pg/mL
uCTX-II; [4]
  inhibition of urine CTX-II (cartilage degradation) vs vehicle-treated CIA: 26.4%
uCTX-II; urine, CIA rats, MTX 75 μg/mL (printed), AMK 200 mg/kg
  CTX-II: 2500.8 ± 355.9 ng/g creatinine
PIIANP; [4]
  increase in synovial PIIANP vs vehicle-treated CIA: 69.8%
PIIANP; [5]
  increase in serum PIIANP vs CIA + vehicle: 47%
PIIANP; serum, AP study, MTX (0.5 mg/mL), AP (200 mg/kg) oral 3 weeks
  PIIANP: 6.53 ± 1.4 ng/mL
PIIANP; synovial fluid, CIA rats, MTX 75 μg/mL (printed), AMK 200 mg/kg
  PIIANP: 0.43 ± 0.16 ng/mg
[2]; (CTX-II)-(PIIANP), Methotrexate 0.5 mg/kg (printed), AMK 200 mg/kg
  Z score, Imbalance (catabolic − anabolic), Mean ± SE: 1.30 ± 0.33
[2]; from PIIANP, SDs from mean of normal control rats, Methotrexate 0.5 mg/kg (printed), AMK 200 mg/kg
  Z score, Regeneration, Mean ± SE: −0.90 ± 0.16
[2]; from imbalance Z score
  improvement in driving OA progression to normalcy relative to vehicle treated CIA rats: 56.4%
[2]; from uCTX-II, SDs from mean of normal control rats, Methotrexate 0.5 mg/kg (printed), AMK 200 mg/kg
  Z score, Degradation, Mean ± SE: 0.39 ± 0.34
CIA rats [3]; [7]
  Bone Erosion, percent inhibition against vehicle treated disease model: (66.3%)
  Cartilage destruction, percent inhibition against vehicle treated disease model: (32.6%)
  GAG Loss, percent inhibition against vehicle treated disease model: (50.8%)
  Inflammation, percent inhibition against vehicle treated disease model: (36.0%)
CIA rats [3]; [8]
  Bone Erosion, percent inhibition against vehicle treated disease model: (100%)
  Cartilage destruction, percent inhibition against vehicle treated disease model: (98.3%)
  GAG Loss, percent inhibition against vehicle treated disease model: (94.5%)
  Inflammation, percent inhibition against vehicle treated disease model: (100%)
CIA rats [3]; [9]
  Bone Erosion (Mean ± SE): 1.13 ± 0.46
  Cartilage destruction (Mean ± SE): 2.90 ± 0.63
  GAG Loss (Mean ± SE): 2.04 ± 0.62
  Inflammation (Mean ± SE): 3.25 ± 1.02
CIA rats [3]; [10]
  Bone Erosion (Mean ± SE): 0.00 ± 0.00
  Cartilage destruction (Mean ± SE): 0.13 ± 0.05
  GAG Loss (Mean ± SD): 0.21 ± 0.17
  Inflammation (Mean ± SE): 0.00 ± 0.00
